From patent publication US11299760B2 (Amgen Inc., priority 2013, dated 2022)

What was measured:
Assay type in all cases: cell-based, Chinese hamster
[1] = test system: recombinant CHO cell line producing an antibody (MAb A); experiment: six day batch assay, glycan analysis (HILIC); parameters: Total HM: unit not given here; conditions: for Man5 / Man6 / Man7 / Man8a / Man8b / Total HM: day 6
Experimental: Cells were centrifuged at 1500 rpm for five minutes and seeded at 2×10^6 cells per ml into batch production medium in a 24 deep-well plate at a final volume of 3 ml.
Cell density and viability were measured by Guava easyCyte flow cytometer (Milipore, Billerica, Mass.) with the ViaCount application. Cultures were spun down, supernatants were filtered on 0.4 micron filters, and were analyzed for titer and glycan distribution.
For glycan analysis, Peptide-N-Glycosidase F (PNGAse F)—released N-linked glycans from protein A purified antibodies were labeled with 2-aminobenzoic acid (2-AA) and separated by HILIC (hydrophilic interaction liquid chromatography) in-line with a fluorescence detector. The separation was performed using a Waters Acquity UPLC (Waters, Milford, Mass.). In-line mass spectrometry (MS), using an ion trap mass spectrometer (LTQ; Thermo Scientific, Waltham, Mass.) in positive mode, was incorporated to accommodate mass determination of species. Glycans were injected and bound to the column in high organic conditions and were then eluted with an increasing gradient of an aqueous ammonium formate buffer. Fast separation times were achieved using a […] small particle column format (Acquity UPLC BEH Glycan Column, 2.1×100 mm; Waters, Milford, Mass.).

[2] = test system: Cells producing MAb A; experiment: mock perfusion assay, cell culture parameters; conditions: for CVCD / Cumulative Titer / End of Production Viability / qP: MAb A
Experimental: (§1) Mock perfusion assay is a small scale, plate-based assay that is designed to mimic perfusion conditions in bioreactors through daily medium exchanges. For a 10-day mock perfusion assay, passaging cultures of various production cell lines were diluted 1:5 into chemically defined base perfusion medium in a 24 deep-well plate at a final volume of 3 ml per well. Mock perfusion was initiated on day 3 when the cells were spun down at 1000 rpm for 5 minutes and 25% of each spent culture medium was exchanged with the equivalent volume of fresh perfusion media. Subsequent medium exchange percentages were 40% on days 4-8 and 50% on day 9. Exchanged supernatants were stored at 4° C. prior to analysis.
(§2) Analysis of cell culture parameters was also started on day 3; viable cell density and viability were analyzed using the ViaCount Guava assay as previously described. Glucose was measured daily starting on day 3 and was maintained at 12 g/l. Stored supernatants were analyzed for antibody titer as described previously. Samples of supernatant fluid from days 6, 8 and 10 were also analyzed for the presence and type of glycans by HILIC analysis.
(§3) The cell lines used included three production cell lines that are known to generate mAbs with low high mannose glycans (MAb A, MAb B and MAb C) and one production cell line that consistently produces product with high levels of high mannose glycans (MAb D). […] Equivalent volumes of methanol were added daily to control cultures (columns 1 and 2 of the 24-well plate). This scheme is depicted below:
(§4) Viable cell density (VCD) and viability were measured daily starting on day 3. Spent medium samples were collected on days 3-10 and were subjected to titer analysis. Viable cell densities were used to calculate cumulative viable cell densities, which were along with cumulative titer values used to calculate specific productivities (qP). Every value shown is an average of duplicates.

[3] = test system: Cells producing MAb C; experiment: mock perfusion assay, cell culture parameters; conditions: for CVCD / Cumulative Titer / End of Production Viability / qP: MAb C
Experimental: as §1, §2, §3, §4

[4] = test system: Cells producing MAb B; experiment: mock perfusion assay, cell culture parameters; conditions: for CVCD / Cumulative Titer / End of Production Viability / qP: MAb B
Experimental: as §1, §2, §3, §4

[5] = increasing monensin (to 100 nM)

CC[C@@]1([C@@H]2O[C@@H]([C@H]3O[C@@](O)(CO)[C@H](C)C[C@@H]3C)C[C@@H]2C)CC[C@H]([C@]2(C)CC[C@]3(C[C@H](O)[C@@H](C)[C@@H]([C@@H](C)[C@@H](OC)[C@H](C)C(=O)O)O3)O2)O1 [monensin]
Man5 ([1]; 0.1 nM monensin added day 1): 0.775%
Man6 ([1]; 0.1 nM monensin added day 1): 0.09%
Man7 ([1]; 0.1 nM monensin added day 1): 0%
Man8a ([1]; 0.1 nM monensin added day 1): 0.31%
Man8b ([1]; 0.1 nM monensin added day 1): 0%
Total HM ([1]; 0.1 nM monensin added day 1): 0.8
Man5 ([1]; 0.5 nM monensin added day 1): 0.785%
Man6 ([1]; 0.5 nM monensin added day 1): 0.07%
Man7 ([1]; 0.5 nM monensin added day 1): 0%
Man8a ([1]; 0.5 nM monensin added day 1): 0.3%
Man8b ([1]; 0.5 nM monensin added day 1): 0%
Total HM ([1]; 0.5 nM monensin added day 1): 0.85
Man5 ([1]; 1 nM monensin added day 1): 0.89%
Man6 ([1]; 1 nM monensin added day 1): 0.13%
Man7 ([1]; 1 nM monensin added day 1): 0.04%
Man8a ([1]; 1 nM monensin added day 1): 0.29%
Man8b ([1]; 1 nM monensin added day 1): 0%
Total HM ([1]; 1 nM monensin added day 1): 1.05
Man5 ([1]; 5 nM monensin added day 1): 1.12%
Man6 ([1]; 5 nM monensin added day 1): 0.18%
Man7 ([1]; 5 nM monensin added day 1): 0.27%
Man8a ([1]; 5 nM monensin added day 1): 0.37%
Man8b ([1]; 5 nM monensin added day 1): 0%
Total HM ([1]; 5 nM monensin added day 1): 1.35
Man5 ([1]; 10 nM monensin added day 1): 1.485%
Man6 ([1]; 10 nM monensin added day 1): 0.16%
Man7 ([1]; 10 nM monensin added day 1): 0%
Man8a ([1]; 10 nM monensin added day 1): 0.315%
Man8b ([1]; 10 nM monensin added day 1): 0%
Total HM ([1]; 10 nM monensin added day 1): 1.6
increase of total high mannose glycans on the recombinant antibody ([1]; 25 nM bolus on day 0 or 200 nM or 100 nM bolus on day 3): 6 to 30 fold
Man5 ([1]; 25 nM monensin added day 1): 6.43%
Man6 ([1]; 25 nM monensin added day 1): 0.59%
Man7 ([1]; 25 nM monensin added day 1): 0.59%
Man8a ([1]; 25 nM monensin added day 1): 0.39%
Man8b ([1]; 25 nM monensin added day 1): 0.115%
Total HM ([1]; 25 nM monensin added day 1): 7.65
effect on high mannose and on cell growth, viability and titer ([1]; 50 nM incubated for six days and 500 nM incubated for three days): large increases in high mannose at the expense of cell growth, viability and titer
Man5 ([1]; 50 nM monensin added day 1): 15.725%
Man6 ([1]; 50 nM monensin added day 1): 4.64%
Man7 ([1]; 50 nM monensin added day 1): 4.73%
Man8a ([1]; 50 nM monensin added day 1): 0.8%
Man8b ([1]; 50 nM monensin added day 1): 2.02%
Total HM ([1]; 50 nM monensin added day 1): 25.1
Man5 ([1]; 100 nM monensin added day 3): 19.365%
Man6 ([1]; 100 nM monensin added day 3): 7.475%
Man7 ([1]; 100 nM monensin added day 3): 6.795%
Man8a ([1]; 100 nM monensin added day 3): 0.8%
Man8b ([1]; 100 nM monensin added day 3): 2.635%
Total HM ([1]; 100 nM monensin added day 3): 33.65
Man5 ([1]; 200 nM monensin added day 3): 18.585%
Man6 ([1]; 200 nM monensin added day 3): 4.975%
Man7 ([1]; 200 nM monensin added day 3): 3.795%
Man8a ([1]; 200 nM monensin added day 3): 0.61%
Man8b ([1]; 200 nM monensin added day 3): 1.17%
Total HM ([1]; 200 nM monensin added day 3): 27.35
Man5 ([1]; 500 nM monensin added day 3): 11.735%
Man6 ([1]; 500 nM monensin added day 3): 1.545%
Man7 ([1]; 500 nM monensin added day 3): 1.045%
Man8a ([1]; 500 nM monensin added day 3): 0.355%
Man8b ([1]; 500 nM monensin added day 3): 0.2%
Total HM ([1]; 500 nM monensin added day 3): 14.3
impact on high mannose or cell culture parameters ([1]; monensin concentrations between 0.1 to 10 nM): no impacts on high mannose or cell culture parameters
effect on cell growth ([2]; MAb A cells, mock perfusion): decrease in total cell mass accumulation
effect on titer and specific productivity ([2]; MAb A cells, mock perfusion): decreased titer but increased specific productivity
CVCD ([2]; constant monensin 25 nM): 57 10^6 c-day/ml
Cumulative Titer ([2]; constant monensin 25 nM): 5.9 g/L
End of Production Viability ([2]; constant monensin 25 nM): 78%
qP ([2]; constant monensin 25 nM): 103 pg/c/d
CVCD ([2]; increasing monensin (to 50 nM)): 57 10^6 c-day/ml
Cumulative Titer ([2]; increasing monensin (to 50 nM)): 5.8 g/L
End of Production Viability ([2]; increasing monensin (to 50 nM)): 80%
qP ([2]; increasing monensin (to 50 nM)): 101 pg/c/d
effect on cumulative viable cell density and viability ([3]; MAb C cells, mock perfusion): slightly increased cumulative viable cell density and improved the viability
effect on titer and specific productivity ([3]; MAb C cells, mock perfusion): increased titer but slightly lower specific productivity
titer and cell culture impacts ([3]; MAb C cells, mock perfusion with monensin): no drop in titer or any other negative cell culture impacts
CVCD ([3]; constant monensin 25 nM): 215 10^6 c-day/ml
Cumulative Titer ([3]; constant monensin 25 nM): 7.4 g/L
End of Production Viability ([3]; constant monensin 25 nM): 77%
qP ([3]; constant monensin 25 nM): 34 pg/c/d
CVCD [3, 5]: 208 10^6 c-day/ml
Cumulative Titer [3, 5]: 7.1 g/L
End of Production Viability [3, 5]: 77%
qP [3, 5]: 34 pg/c/d
effect on growth or viability ([4]; MAb B cells, mock perfusion): no effect on the growth or viability
effect on titer and specific productivity ([4]; MAb B cells, mock perfusion): no impact on either titer or specific productivity
CVCD ([4]; constant monensin 25 nM): 89 10^6 c-day/ml
Cumulative Titer ([4]; constant monensin 25 nM): 3.5 g/L
End of Production Viability ([4]; constant monensin 25 nM): 85%
qP ([4]; constant monensin 25 nM): 40 pg/c/d
CVCD [4, 5]: 88 10^6 c-day/ml
Cumulative Titer [4, 5]: 3.6 g/L
End of Production Viability [4, 5]: 83%
qP [4, 5]: 40 pg/c/d
